Patent US12584916B2, “Method for measuring the modulation of the activation of a G protein-coupled receptor with GTP analogues” (CISBIO BIOASSAYS, priority 2019, dated 2026)

Tests used:
Delta Opioid GPCR = biological target: T1, Delta Opioid GPCR (Homo sapiens, UniProt P41143); test: Activation test according to format 2A on Delta Opioid GPCR (antagonist mode); assay type: biochemical; conditions: Example 15; SNC162 200 nM fixed; increasing antagonist concentration; GTPgN-octyl-C2 6 nM + DSV36S-d2 10 nM; CHO-DOR membranes; NaCl 300 mM; GDP 0.5 μM
T1 construct: purchased Perkin Elmer or Euroscreen
Procedure: All the reagents were diluted in TrisHCl buffer 50 mM pH 7.4, MgCl2 10 mM, BSA 0.1%, NaCl 10 mM or 100 mM or 300 mM or 500 mM (concentration specified in the legend of each figure), 0 or 0.5 or 1 μM GDP (concentration specified in the legend of each figure). The membranes were prepared 4× for distributing 1 or 10 μg/well (amount specified in the legend of each figure). The nucleotide GTPgS (nonspecific signal condition) was prepared 6.67× to obtain a final concentration in the wells of 100 μM. The test compounds (agonists or antagonists) were prepared 10× to obtain the final concentrations in the wells mentioned in the diagrams. […]
• Membranes expressing the GPCR and the G protein: 5 μL • Buffer or GTPgS nucleotide (for the nonspecific signal condition): 3 μL • Nonhydrolyzable/slowly hydrolyzable GTP analogue—donor or acceptor: 5 μL • anti G-alphai-donor or acceptor ligand: 5 μL • Buffer or test compounds (agonists and/or antagonists): 2 μL. The nonspecific signal (fluorescence background noise) was measured with wells containing an excess of GTPgS (100 μM). Reading the HTRF Signal […]
From the raw signals at 665 nm (for red acceptor—Cy5) or 520 nm (for green acceptors—AF488 or Fluorescein) and 620 nm, the HTRF Ratio was calculated from the following formula: HTRF Ratio=Signal at 665 nm or Signal at 520 nm/Signal at 620 nm*10.000. […]

[1] = biological target: switch II domain of the alphai G-protein (Homo sapiens, UniProt P63096); test: Binding site of the anti-G-alphai antibodies
Sequence of switch II domain of the alphai G-protein (P63096 whole entry, the tested form may be a part): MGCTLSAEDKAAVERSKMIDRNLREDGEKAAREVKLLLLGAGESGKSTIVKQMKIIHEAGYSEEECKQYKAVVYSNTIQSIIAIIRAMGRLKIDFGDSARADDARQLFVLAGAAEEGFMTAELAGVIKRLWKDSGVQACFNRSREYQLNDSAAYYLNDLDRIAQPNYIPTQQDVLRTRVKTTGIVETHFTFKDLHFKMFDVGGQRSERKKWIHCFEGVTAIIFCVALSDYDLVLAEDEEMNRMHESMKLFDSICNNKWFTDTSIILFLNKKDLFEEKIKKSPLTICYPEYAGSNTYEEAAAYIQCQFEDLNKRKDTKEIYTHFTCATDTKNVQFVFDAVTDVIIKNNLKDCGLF

T1 sequence (P41143 whole entry): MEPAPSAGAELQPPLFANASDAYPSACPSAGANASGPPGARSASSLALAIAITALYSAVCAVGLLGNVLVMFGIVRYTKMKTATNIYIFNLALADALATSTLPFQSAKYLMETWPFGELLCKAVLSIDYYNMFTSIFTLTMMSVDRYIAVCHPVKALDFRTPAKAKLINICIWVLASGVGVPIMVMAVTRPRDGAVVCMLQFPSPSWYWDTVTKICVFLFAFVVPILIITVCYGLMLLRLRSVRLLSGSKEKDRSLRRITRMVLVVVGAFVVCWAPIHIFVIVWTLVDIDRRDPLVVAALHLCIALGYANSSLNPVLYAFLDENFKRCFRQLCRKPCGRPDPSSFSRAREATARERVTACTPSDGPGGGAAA

Question: For `Oc1ccc2c3c1O[C@H]1c4[nH]c5ccccc5c4C[C@@]4(O)[C@@H](C2)N(CC2CC2)CC[C@]314` [Naltrindole], which “inhibition of activation by agonist SNC162 (decrease in the TR-FRET signal, HTRF Ratio)” value (Delta Opioid GPCR) is on record?
Answer: inhibited

B1: DSV36S: anti-G-alphai antibody of Cisbio Bioassays, VH SEQ ID NO: 15 and VL SEQ ID NO: 16; used labeled with d2 or Lumi4Tb (antibody, V domains shown)
VH: EVQLQQSGAELVRPGALVKLSCKASGFNIKDYYMHWVKQRPEQGLEWIGWIDPENGNTIYDPKFQGKASITADTSSNTAYLQLSSLTSEDTAVYYCTRGGGYYSDWYFDVWGAGTTVTVSS
VL: QIVLTQSPAIMSASPGEKVTMTCSASSSVSYMHWYQQKSGTSPKRWIYDTSKLASGVPARFSGSGSGTSYSLTISSMEAEDAATYYCQQWSSNPPITFGAGTKLELK
modifications: d2 or Lumi4Tb label; Heavy chain variable domain (VH); Light chain variable domain (VL)
Question: Which “binding site on the alphai G-protein” value [1] does the source give for B1 here?
Answer: bind at the level of the switch II domain of the alphai G-protein
